From US5459270A, “Azacyclic compounds, processes for their preparation and pharmaceutical compositions containing them” (Merck Sharp & Dohme Limited, priority 1991, dated 1995) come the findings set out here.

“And” between values parts separate entries of the source, which are not always exact repeats. Equal entries are not always repeated. Structures can show the parent of a compound that is named as a salt.

A word on the IC50: it is the concentration at which inhibition is half-maximal.

The target in this experiment is human neurokinin-1-receptor (NK1R) (Homo sapiens, UniProt P25103). Description: biochemical. In kind it is binding. As to conditions: human NK1R in COS or CHO cells; for IC50: displacement of 125I-substance P, read-out: IC50 @ NKIR. The protocol:
To express the cloned human neurokinin-1-receptor (NK1R) transiently in COS, the cDNA for the human NK1R was cloned into the expression vector pCDM9 which was derived from pCDM8 (INVITROGEN) by inserting the ampicillin resistance gene (nucleotide 1973 to 2964 from BLUESCRIPT SK+ (trademark, […], La Jolla, Calif., USA)) into the Sac II site. Transfection of 20 ug of the plasmid DNA into 10 million COS cells was achieved by electroporation in 800 μl of transfection buffer (135 mM NaCl, 1.2 mM CaCl2, 1.2 mM MgCl2, 2.4 mM K2 HPO4, 0.6 mM KH2 PO4, 10 mM glucose, 10 mM N-2-hydroxyethyl-piperazine-N'-2-ethane sulphonic acid (HEPES) pH 7.4) at 260 V and 950 μF using the IBI GENEZAPPER (trademark IBI, New Haven, Conn., USA). The cells were incubated in 10% fetal calf serum, 2 mM glutamine, 100 U/ml penicillin-streptomycin, and 90% DMEM media (GIBCO, Grand Island, N.Y., USA) in 5% CO2 at 37° C. for three days before the binding assay.
To establish a stable cell line expressing cloned human NK1R, the cDNA was subcloned into the vector pRcCMV (INVITROGEN). Transfection of 20 μg of the plasmid DNA into CHO cells was achieved by electroporation in 800 μl of transfection buffer supplemented with 0.625 mg/ml Herring sperm DNA at 300 V and 950 μF using the IBI GENEZAPPER (IBI). The transfected cells were incubated in CHO media [10% fetal calf serum, 100 U/ml penicillin-streptomycin, 2 mM glutamine, 1/500 hypoxanthine-thymidine (ATCC), 90% IMDM media (JRH BIOSCIENCES, Lenexa, Kans., USA), 0.7 mg/ml G418 (GIBCO)] in 5% CO2 at 37° C. until colonies were visible. Each colony was separated and propagated. The cell clone with the highest number of human NK1R was selected for subsequent applications such as drug screening.
The binding assay of human NK1R expressed in either COS or CHO cells is based on the use of ^125 I-substance P (^125 I-SP, from DU PONT, Boston, Mass.) as a radioactively labeled ligand which competes with unlabeled substance P or any other ligand for binding to the human NK1R. […] The tubes were incubated at 4° C. or at room temperature for 1 hour with gentle shaking. The bound radioactivity was separated from unbound radioactivity by GF/C filter (BRANDEL, Gaithersburg, Md.) which was pre-wetted with 0.1% polyethylenimine. The filter was washed with 3 ml of wash buffer (50 mM Tris pH 7.5, 5 mM MnCl2, 50 mM NaCl) three times and its radioactivity was determined by gamma counter.
(In a radioligand displacement assay an active substance lowers the binding of a labelled ligand.)

human neurokinin-1-receptor (NK1R), sequence (P25103 whole entry): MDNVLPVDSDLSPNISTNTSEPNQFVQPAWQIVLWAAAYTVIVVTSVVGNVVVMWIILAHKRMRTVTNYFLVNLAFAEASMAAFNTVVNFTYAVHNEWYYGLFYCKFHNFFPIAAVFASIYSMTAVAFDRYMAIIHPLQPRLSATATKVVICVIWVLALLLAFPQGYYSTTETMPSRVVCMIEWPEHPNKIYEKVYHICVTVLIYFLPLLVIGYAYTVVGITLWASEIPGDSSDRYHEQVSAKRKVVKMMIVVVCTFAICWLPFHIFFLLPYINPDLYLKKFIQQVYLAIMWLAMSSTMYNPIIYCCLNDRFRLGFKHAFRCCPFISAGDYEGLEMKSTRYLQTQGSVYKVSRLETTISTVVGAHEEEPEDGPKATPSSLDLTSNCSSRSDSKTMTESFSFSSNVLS

As to `Cc1cc(C)cc(CO[C@H]2CCN(C)[C@H]2C(c2ccccc2)c2ccccc2)c1` (relative stereo) [Example 1, cis 2-(Diphenylmethyl)-3-(3,5-dimethylbenzyloxy)-1-methylpyrrolidine], the IC50 turned out to be 14 nM.
As to `Cc1cc(C)cc(CO[C@H]2CCCN[C@H]2c2ccccc2)c1` (relative stereo) [Example 2, cis-3-((3,5-Dimethylphenyl)methyloxy)-2-phenylpiperidine hydrochloride salt], the IC50 was below 3 nM.
As for `FC(F)(F)c1cc(CO[C@H]2CCCN[C@H]2c2ccccc2)cc(C(F)(F)F)c1` (relative stereo) [Example 4, cis-3-((3,5-Bis(trifluoromethyl)phenyl)methyloxy)-2-phenylpiperidine hydrochloride salt], the IC50 is 2 nM and 1.4 nM.
With `Cc1cc(C)cc(CO[C@@H]2CCCN[C@H]2c2ccccc2)c1` (relative stereo) [Example 12, trans-((3.5-Dimethylphenyl)methyloxy)-2-phenyl piperidine hydrochloride salt], where the note is “1 h, read-out: % @ 1 μM (in column IC50 @ NKIR), 1 μM, 125I-substance P”, the inhibition at 1 µM came out at 46%.
As for `FC(F)(F)c1cc(CO[C@@H]2CCCN[C@H]2c2ccccc2)cc(C(F)(F)F)c1` (relative stereo) [Example 13, trans-3-((3,5-Bis(trifluoromethyl)phenyl)methyloxy)-2-phenyl piperidine hydrochloride salt], the IC50 is 300 nM.
Turning to `FC(F)(F)c1cc(CO[C@H]2CCCN[C@H]2c2ccccc2Cl)cc(C(F)(F)F)c1` (relative stereo) [Example 21, cis-3-((3,5-Bis(trifluoromethyl)phenyl)methyloxy)-2-(2-chlorophenyl)piperidine], the IC50 came out at 40 nM.
For `FC(F)(F)c1cc(CO[C@H]2CCCN[C@H]2c2cccc(Cl)c2)cc(C(F)(F)F)c1` (relative stereo) [Example 22, cis-3-((3,5-Bis(trifluoromethyl)phenyl)methyloxy)-2-(3-chlorophenyl)piperidine hydrochloride salt], the IC50 stood at 5 nM.
For the compound `FC(F)(F)c1cc(CO[C@H]2CCCN[C@H]2c2ccc(Cl)cc2)cc(C(F)(F)F)c1` (relative stereo) [Example 23, cis-3-((3,5-Bis(trifluoromethyl)phenyl)methyloxy)-2-(4-chlorophenyl)piperidine hydrochloride salt], the IC50 worked out at 35 nM.
As to `Cc1ccc([C@@H]2NCCC[C@@H]2OCc2cc(C(F)(F)F)cc(C(F)(F)F)c2)cc1` (relative stereo) [Example 24, cis-3-(3,5,-Bis(trifluoromethyl)phenyl)methyloxy)-2-(4-methylphenyl)piperidine hydrochloride salt], the 50% inhibitory concentration (IC50) came to 15 nM.
With `FC(F)(F)c1cc(CO[C@H]2CCCN[C@H]2c2cccs2)cc(C(F)(F)F)c1` (relative stereo) [Example 25, cis-3-((3,5-Bis(trifluoromethyl)phenyl)methyloxy)-2-thienyl piperidine hydrochloride salt], the IC50 was determined as 70 nM.
With `FC(F)(F)c1cc(CO[C@H]2CCCN[C@H]2c2ccccn2)cc(C(F)(F)F)c1` (relative stereo) [Example 26, cis-3-((3,5-Bis(trifluoromethyl)phenyl)methyloxy)-2-pyridyl piperidine dihydrochloride salt], the inhibition at 0.3 µM (1 h, read-out: % @ 300 nM (in column IC50 @ NKIR), 300 nM, 125I-substance P) was found to be 41%.
Take `COc1ccc(CN2C(=O)CC[C@H](OCc3cc(C(F)(F)F)cc(C(F)(F)F)c3)[C@@H]2c2ccccc2)cc1` (relative stereo) [Example 27, cis-3-((3,5-Bis(trifluoromethyl)phenyl)methyloxy)-6-keto1-(4-methoxybenzyl)-2-phenyl piperidine]: the IC50 came to 160 nM.
Take `O=C1CC[C@H](OCc2cc(C(F)(F)F)cc(C(F)(F)F)c2)[C@H](c2ccccc2)N1` (relative stereo) [Example 28, cis-3-((3,5-Bis(trifluoromethyl)phenyl)methyloxy)-6-keto-2-phenyl piperidine]: the IC50 came to 15 nM.
